Reference: the NIST ThermoML archive (doi:10.1016/j.jct.2014.06.012)

Experiment: molar heat capacity at constant pressure
Conditions: 101.33 kPa, Vacuum adiabatic calorimetry

O=P([O-])([O-])[O-].[Cs+].[Mn+2] [cesium manganese(II) phosphate]
molar heat capacity at constant pressure [J/K/mol]
Conditions | Crystal 2 | Crystal 3
5 K | – | 1.713
5.85 K | – | 2.328
6 K | – | 2.918
6.04 K | – | 3.492
6.34 K | – | 4.989
6.38 K | – | 5.654
6.59 K | – | 21.87
6.73 K | – | 13.64
6.86 K | – | 41.07
6.9 K | 4.573 | 4.282
7 K | 4.623 | –
7.01 K | 15.8 | –
7.32 K | 9.146 | –
7.33 K | 6.236 | –
7.8 K | 5.986 | –
8 K | 4.972 | –
8.09 K | 5.321 | –
8.15 K | 5.82 | –
8.3 K | 5.488 | –
8.79 K | 5.238 | –
9 K | 5.271 | –
9.13 K | 5.488 | –
9.54 K | 5.404 | –
9.95 K | 5.654 | –
10 K | 5.579 | –
10.3 K | 5.654 | –
11.03 K | 5.903 | –
11.57 K | 6.319 | –
12.47 K | 6.818 | –
12.55 K | 6.901 | –
13.98 K | 7.816 | –
15 K | 8.647 | –
15.39 K | 8.98 | –
16.79 K | 10.24 | –
18.22 K | 11.6 | –
19.65 K | 12.95 | –
20 K | 13.29 | –
20.79 K | 14.05 | –
21.93 K | 15.15 | –
23.17 K | 16.48 | –
24.41 K | 17.81 | –
25 K | 18.42 | –
26.16 K | 19.68 | –
27.91 K | 21.56 | –
29.7 K | 23.55 | –
30 K | 23.85 | –
30.98 K | 25 | –
31.52 K | 25.55 | –
32.86 K | 26.96 | –
34.2 K | 28.45 | –
35 K | 29.29 | –
36 K | 30.31 | –
37.79 K | 32.15 | –
39.59 K | 33.82 | –
40 K | 34.22 | –
41.48 K | 35.49 | –
43.18 K | 36.82 | –
45 K | 38.16 | –
45.05 K | 38.3 | –
46.84 K | 39.62 | –
48.73 K | 41.07 | –
50 K | 42.05 | –
50.55 K | 42.5 | –
52.38 K | 44 | –
54.21 K | 45.4 | –
56.04 K | 46.79 | –
57.87 K | 48.08 | –
59.7 K | 49.36 | –
60 K | 49.65 | –
61.53 K | 50.69 | –
63.37 K | 52 | –
65.2 K | 53.24 | –
67.03 K | 54.47 | –
68.87 K | 55.66 | –
70 K | 56.41 | –
70.7 K | 56.85 | –
72.42 K | 57.92 | –
73.98 K | 58.82 | –
75.54 K | 59.72 | –
76.62 K | 60.35 | –
77.7 K | 60.98 | –
78.93 K | 61.69 | –
79.65 K | 62.09 | –
80 K | 62.23 | –
80.15 K | 62.42 | –
81.49 K | 63.07 | –
82.19 K | 63.43 | –
82.8 K | 63.72 | –
84.9 K | 64.7 | –
